From article PMC4127532 (Journal of Medicinal Chemistry, 2014)

System: A/England/195/2009 (H1N1), M2/N31
Format: cell-based
Details: 100 μM

## NC1C2CC3CC(C2)CC1C3 (stereo not shown) [Compound 3]
  % block after 30 min: 16 (100 μM; 1) %
